Source: patent publication US5914319A, “Antithrombotic agents” (Eli Lilly and Company, priority 1995, dated 1999)
Structures can show the parent of a compound that is named as a salt.

Key:
[1] = early clinical studies, Simoons et al., Circulation, 90, I-231 (1994); cited from earlier work
Human plasma [2] = experiment: Human plasma anticoagulation, thrombin time (TT); assay type: biochemical; details: concentration required to double the thrombin time, linear extrapolation
Method in brief: (§1)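 Prolongation of human plasma clotting was measured for PT (thromboplastin reagent), APTT (Actin, 120 s, then 0.02M CaCl2) and TT (bovine thrombin, 10 NIH units/mL). Concentration needed for a doubled time was estimated by linear extrapolation.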

[3] = Index of bioavailability (% Relative Activity from plasma TT time course); assay type: in vivo; details: dose-adjusted AUC of plasma TT time course, p.o. versus i.v. bolus
Protocol: Parke Davis) at 37° C. […] Assays are done in duplicate and averaged. […] Each sample population represented alternating sequential time points.

human thrombin = human thrombin (Homo sapiens, UniProt P00734); experiment: Inhibition of the amidase activity of thrombin (Kass); assay type: biochemical; details: mean over a range of test compound concentrations; […]
factor Xa = target: T1, factor Xa (Homo sapiens, UniProt P00742); experiment: Kass with other serine proteases: factor Xa; assay type: biochemical; details: substrate N-Benzoyl-Ile-Glu-Gly-Arg-p-nitroanilide
T1 construct: Human factors X, Xa, IXa, XIa, and XIIa are purchased; purchased Enzyme Research Laboratories, South Bend, Ind
T1 sequence (P00742 235-488 limits assumed): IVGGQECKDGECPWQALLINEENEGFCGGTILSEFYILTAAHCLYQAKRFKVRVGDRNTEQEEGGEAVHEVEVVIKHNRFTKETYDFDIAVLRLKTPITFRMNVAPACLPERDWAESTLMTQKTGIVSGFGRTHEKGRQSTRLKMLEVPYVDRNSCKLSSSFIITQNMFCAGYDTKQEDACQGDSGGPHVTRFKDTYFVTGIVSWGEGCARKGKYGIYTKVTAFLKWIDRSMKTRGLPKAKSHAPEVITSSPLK
T1 sequence (P00742 41-179 partner limits assumed): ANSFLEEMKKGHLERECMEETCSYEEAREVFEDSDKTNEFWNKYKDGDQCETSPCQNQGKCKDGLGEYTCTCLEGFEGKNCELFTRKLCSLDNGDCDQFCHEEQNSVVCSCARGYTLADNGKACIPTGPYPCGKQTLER
Text: (§3) Chromogenic substrates: N-Benzoyl-Ile-Glu-Gly-Arg-p-nitroanilide (for factor Xa); N-Cbz-D-Arg-Gly-Arg-p-nitroanilide (for factor IXa assay as the factor Xa substrate); Pyroglutamyl-Pro-Arg-p-nitroanilide (for Factor XIa and for aPC); H-D-Pro-Phe-Arg-p-nitroanilide (for factor XIIa); and Pyroglutamyl-Gly-Arg-p-nitroanilide (for urokinase); are purchased from KabiVitrum, Stockholm, Sweden, or from Midwest Biotech, Fishers, Ind. Bovine trypsin is purchased from Worthington Biochemicals, Freehold, N.J., and human plasma kallikrein from Kabi Vitrum, Stockholm, Sweden. Chromogenic substrate H-D-Pro-Phe-Arg-p-nitroanilide for plasma kallikrein is purchased from Kabi Vitrum, Stockholm, Sweden. […]

Bovine trypsin = target: T2, Bovine trypsin (Bos taurus, UniProt P00760); experiment: Kass with other serine proteases: trypsin; assay type: biochemical; details: substrate N-Benzoyl-Phe-Val-Arg-p-nitroanilide
T2 construct: Bovine trypsin is purchased from Worthington Biochemicals; purchased Worthington Biochemicals, Freehold, N.J
T2 sequence (P00760 24-246): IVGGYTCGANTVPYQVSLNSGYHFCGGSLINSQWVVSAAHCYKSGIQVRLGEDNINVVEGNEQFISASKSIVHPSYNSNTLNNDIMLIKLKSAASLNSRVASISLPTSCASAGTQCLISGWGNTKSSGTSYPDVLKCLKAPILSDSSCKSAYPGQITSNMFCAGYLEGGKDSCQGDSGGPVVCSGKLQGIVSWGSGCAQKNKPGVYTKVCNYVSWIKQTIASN
Text: as §3

Human plasmin = target: T3, Human plasmin (Homo sapiens, UniProt P00747); experiment: Kass with fibrinolytic system proteases: plasmin; assay type: biochemical; details: substrate H-D-Val-Leu-Lys-p-nitroanilide
T3 construct: Human plasmin is purchased from Boehringer Mannheim; purchased Boehringer Mannheim, Indianapolis, Ind
T3 sequence (P00747 581-810 limits assumed): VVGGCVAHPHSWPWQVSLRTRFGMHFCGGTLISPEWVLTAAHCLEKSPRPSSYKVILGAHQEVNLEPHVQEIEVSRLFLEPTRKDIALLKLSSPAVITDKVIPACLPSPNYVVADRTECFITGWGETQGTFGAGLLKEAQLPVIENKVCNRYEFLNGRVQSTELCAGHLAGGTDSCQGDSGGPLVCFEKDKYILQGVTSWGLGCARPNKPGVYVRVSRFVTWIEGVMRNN
T3 sequence (P00747 97-580 partner limits assumed): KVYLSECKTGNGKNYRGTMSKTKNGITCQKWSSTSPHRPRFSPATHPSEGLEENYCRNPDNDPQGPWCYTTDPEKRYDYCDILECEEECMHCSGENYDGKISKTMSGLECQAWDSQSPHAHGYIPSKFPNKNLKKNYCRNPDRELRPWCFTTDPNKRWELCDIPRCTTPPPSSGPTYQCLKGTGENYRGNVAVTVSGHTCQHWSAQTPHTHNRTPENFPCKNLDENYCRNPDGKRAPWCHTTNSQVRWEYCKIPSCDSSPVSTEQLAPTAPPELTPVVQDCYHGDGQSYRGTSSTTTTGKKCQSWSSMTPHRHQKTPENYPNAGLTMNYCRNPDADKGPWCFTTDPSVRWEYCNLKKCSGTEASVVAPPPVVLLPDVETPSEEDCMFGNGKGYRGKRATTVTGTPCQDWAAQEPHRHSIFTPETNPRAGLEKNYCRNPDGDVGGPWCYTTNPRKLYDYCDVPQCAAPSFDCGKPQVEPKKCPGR
Protocol: (§2) By substantially following the procedures described above for human thrombin, and using other human blood coagulation system serine proteases and proteases of the fibrinolytic system with the appropriate chromogenic substrates, identified below, selectivity of the compounds of the present invention with respect to the coagulation factor serine proteases and with respect to the fibrinolytic system serine proteases are evaluated as well as their substantial lack of interference with serine proteases of the fibrinolytic system. […] This would be important to the therapeutic use of such agents as an adjunct to streptokinase, t-PA or urokinase thrombolytic therapy and to the use of such agents as an endogenous fibrinolysis-sparing (with respect to t-PA and urokinase) antithrombotic agent. In addition to the lack of interference with the amidase activity of the fibrinolytic proteases, such fibrinolytic system sparing can be studied by the use of human plasma clots and their lysis by the respective fibrinolytic plasminogen activators.

[4] = target: T4, tissue plasminogen activator (t-PA) (Homo sapiens, UniProt P00750); experiment: Kass with fibrinolytic system proteases: t-PA; assay type: biochemical; details: substrate H-D-Ile-Pro-Arg-p-nitroanilide
T4 construct: purchased American Diagnostica, Greenwich, Conn
T4 sequence (P00750 36-562): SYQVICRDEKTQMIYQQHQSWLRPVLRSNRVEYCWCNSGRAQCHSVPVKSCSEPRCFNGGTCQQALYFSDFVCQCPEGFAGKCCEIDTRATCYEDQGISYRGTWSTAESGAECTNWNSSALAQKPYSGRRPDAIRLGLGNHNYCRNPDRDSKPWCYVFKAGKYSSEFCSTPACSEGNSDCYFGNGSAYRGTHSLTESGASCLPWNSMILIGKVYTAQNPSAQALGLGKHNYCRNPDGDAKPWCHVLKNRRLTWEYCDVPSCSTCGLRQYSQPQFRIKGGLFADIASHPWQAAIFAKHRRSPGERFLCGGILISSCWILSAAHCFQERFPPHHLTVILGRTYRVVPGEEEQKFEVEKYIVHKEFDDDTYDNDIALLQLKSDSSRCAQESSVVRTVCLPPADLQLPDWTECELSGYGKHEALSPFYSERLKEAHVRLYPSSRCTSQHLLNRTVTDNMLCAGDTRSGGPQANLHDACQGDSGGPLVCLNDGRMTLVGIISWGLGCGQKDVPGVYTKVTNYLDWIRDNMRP
Protocol: as §2

Human plasma [5] = experiment: Human plasma anticoagulation, activated partial thromboplastin time (APTT); assay type: biochemical; details: concentration required to double the APTT, linear extrapolation
Method in brief: as §1

Human plasma [6] = experiment: Human plasma anticoagulation, prothrombin time (PT); assay type: biochemical; details: concentration required to double the PT, linear extrapolation
Method in brief: as §1

| SMILES | anticoagulant in man [1] | Human Plasma Anticoagulation 2× Clotting time (ng/mL) TT (Human plasma [2]) | % oral/i.v. activity (Rat) [3] | Kass × 10^6 (L/mole) Human Thrombin (human thrombin) | Kass × 10^6 (L/mole) Xa (factor Xa) | Kass × 10^6 (L/mole) Trypsin (Bovine trypsin) | Kass × 10^6 (L/mole) Plasmin (Human plasmin) | Kass × 10^6 (L/mole) t-PA [4] | Human Plasma Anticoagulation 2× Clotting time (ng/mL) APTT (Human plasma [5]) | Human Plasma Anticoagulation 2× Clotting time (ng/mL) PT (Human plasma [6]) |
| --- | --- | --- | --- | --- | --- | --- | --- | --- | --- | --- |
| CN[C@H](Cc1ccccc1)C(=O)N1CCC[C@H]1C(=O)N[C@H](C=O)CCCNC(=N)N.O=S(=O)(O)O [D-MePhe-Pro-Arg-H sulfate] | anticoagulant in man |  |  |  |  |  |  |  |  |  |
| CCS(=O)(=O)N[C@H](Cc1ccccc1)C(=O)N1CCC[C@H]1C(=O)NCCCCN=C(N)N.Cl [Example 1, EtSO2 -D-Phe-Pro-Agm.HCl] |  | 250 ng/mL | 8% |  |  |  |  |  |  |  |
| N=C(N)c1ccc(CNC(=O)[C@@H]2CCCN2C(=O)[C@@H](CC2CCCCC2)NCC(=O)O)cc1 [Example 48, HOOCCH2 -D-Cha-Pro-p-NHCH2 C6 H4 C(NH)NH2.HCl] |  | 2. ng/mL |  | 4,100 × 10^6 L/mole | 5.5 × 10^6 L/mole | 250. × 10^6 L/mole | 0.43 × 10^6 L/mole | 0.05 × 10^6 L/mole | 33 ng/mL | 59 ng/mL |
